Data taken from US20230313199A1, “TARGET FOR MODULATING BODY MASS” (Massachusetts Institute of Technology, priority 2020, published 2023).

Tests used:
NTD of human MFSD7C = biological target: T1, NTD of human MFSD7C (Homo sapiens, UniProt Q9UPI3); experiment: Heme absorbance-shift assay with wild-type NTD; format: binding
T1 construct: Plasmid harboring GST-His-tag-SUMO-NTD (amino acids 1-84); GST-His-tag-SUMO (N, cleaved yes); made in house; host or cells: Escherichia coli Lemo21(DE3)
T1 sequence (Q9UPI3 1-84): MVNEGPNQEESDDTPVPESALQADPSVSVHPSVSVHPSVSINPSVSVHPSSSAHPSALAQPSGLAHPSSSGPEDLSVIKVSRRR
Procedure: Heme absorbance-shift assay. Hemin was prepared fresh before each experiment. Approximately 20 mg of hemin (Sigma) was placed in a fresh tube and resuspended with 1 mL of DMSO. The hemin solution was slowly diluted while mixing with 1 mL of 2× buffer C (25 mM HEPES-NaOH pH 7.8, 10 mM NaCl), and aggregated hemin was eliminated by passing the solution through a 0.2 μm filter unit. Hemin concentration was determined by diluting the filtered solution with 1× buffer C 1:100 and using the extinction coefficient of 58,400 cm^−1M^−1 at 385 nm. For each reaction, the 200 μL reaction mix containing 100 μM hemin, 25 mM HEPES-NaOH pH 7.8, 10 mM NaCl, and various concentrations of wild-type or mutant NTD protein, was placed in a transparent 96-well plate. Absorbance intensity was measured using Tecan Infinite M200 Pro microplate reader, between 330 and 550 nm using 5 nm steps. The absorbance intensity for dissolved hemin was subtracted from absorbance intensity from hemin incubated with various concentrations of protein.

THP-1 cells = experiment: Cellular energy charge (ATP/ADP ratio); format: cell-based, human; conditions: heme 1 hour, reduced to similar levels as in 7CKO cells
Procedure: Measurement of cellular energy charge (ATP/ADP ratio). ATP/ADP ratio was measured using ADP Assay Kit (Sigma Catalog No. MAK133-1KT) following manufacturer's protocol. For THP-1 cells, 24 hours before the experiment, cells were resuspended in fresh complete RPMI media. For heme treatment, 1 mL of treated cell suspension was incubated for 1 hour at 37° C. cell culture incubator, then centrifuged and resuspended in 1 mL of fresh warm complete RPMI media in order to wash off excess heme, which interferes with the assays. […] per well (approximately 10,000 cells total) was placed in a white 96-well plate, lysed with 90 μL of ATP Buffer, and incubated with gentle shaking at room temperature for 10 min. Relative ATP amount was directly measured using luminescence. Then, 5 μL of ADP Enzyme mix was added to each well and the plate was incubated with light shaking for 3 minutes. Relative amount of ADP+ATP was measured using luminescence. ADP amount was calculated by subtracting the ATP signal from ADP+ATP signal. To get ATP/ADP ratio, ATP signal was divided by the calculated ADP signal. For BMDMs, the assay was performed following the same protocol but using 20,000 cells per well.

[1] = biological target: T2, endogenous MFSD7C and SERCA2b (Mus musculus, UniProt Q91X85); experiment: Co-IP of endogenous MFSD7C and SERCA2b in bone marrow-derived macrophages; format: cell-based; conditions: bone marrow-derived wild-type macrophages, heme treatment
T2 construct: Co-IP and immunoblotting analysis of endogenous MFSD7C with ATP5h, SERCA2b and HMOX1 in bone marrow-derived macrophages; endogenous in cells; host or cells: bone marrow-derived macrophages from C57BL/6 mice
T2 sequence (Q91X85 whole entry): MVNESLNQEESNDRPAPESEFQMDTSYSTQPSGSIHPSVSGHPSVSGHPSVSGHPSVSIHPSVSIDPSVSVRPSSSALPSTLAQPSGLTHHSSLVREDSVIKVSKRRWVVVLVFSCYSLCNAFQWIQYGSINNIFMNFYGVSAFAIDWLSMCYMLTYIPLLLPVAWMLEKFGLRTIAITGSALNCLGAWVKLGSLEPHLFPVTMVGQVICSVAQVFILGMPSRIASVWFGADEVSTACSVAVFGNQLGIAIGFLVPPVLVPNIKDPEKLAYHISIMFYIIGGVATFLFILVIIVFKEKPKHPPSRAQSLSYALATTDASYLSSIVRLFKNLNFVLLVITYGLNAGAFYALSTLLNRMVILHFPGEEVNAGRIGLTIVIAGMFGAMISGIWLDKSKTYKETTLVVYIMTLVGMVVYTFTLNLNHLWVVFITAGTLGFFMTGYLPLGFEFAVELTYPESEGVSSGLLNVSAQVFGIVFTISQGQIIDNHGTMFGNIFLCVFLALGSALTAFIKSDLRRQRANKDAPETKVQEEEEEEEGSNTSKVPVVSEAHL
Procedure: NTD was incubated with heme and run on Superdex 75 gel filtration column. The flow through was measured for absorbance at 230 nm (gray), 380 nm (blue), and 415 nm (green). Absorbance intensity was normalized to maximum value. […] Heme (100 μM) absorption was set to zero. […] Wildtype (WT) and mutant (Mut) peptide sequences are shown. […] Shown are representative data from five separate experiments. […] Shown are immunoblots of MFSD7C, ATP5h, SERCA2b, and HMOX1 on whole lysates or immunoblots of MFSD7C on anti-ATP5h, anti-SERCA2b and anti-HMOX1 immunoprecipitates. Representative data from one from three experiments are shown. […] Shown are representative data from three separate experiments. WCE: whole cell extract, Sup: supernatant, Mito: 10,000 g mitochondrial fraction. […] THP-1 cells were stained with MitoTracker (green), fixed and permeabilized, and then stained with rabbit polyclonal antibody specific for the C-terminus of MFSD7C, followed with Alexa Fluor® 594-labelled goat anti-rabbit antibody (red). Nuclei were labeled using DAPI (blue). […]
Differentiation of bone marrow-derived macrophage (BMDM). […] Cells were resuspended in DMEM media containing 10% FBS, 2 mM L-glutamine, 2 mM pyruvate, non-essential amino acids (100 μM each), 0.55 mM 2-mercaptoethanol, penicillin/streptomycin), passed through a 40 μm Falcon cell strainer (VWR) to remove large aggregates, and counted. […]

## C=CC1=C(C)c2cc3[n-]c(cc4[n-]c(cc5nc(cc1n2)C(C)=C5C=C)c(C)c4CCC(=O)O)c(CCC(=O)O)c3C.[Fe+2] [heme]
NTD of human MFSD7C; 100 μM heme, various concentrations of wild-type NTD
  absorbance shift of heme (Soret band, Q band): concentration-dependent increase in the intensities of the Soret band (415 nm) and the Q band (535 nm)
NTD of human MFSD7C; 415 nm absorbance versus NTD concentration
  heme binding sites per NTD from rate of increase of Soret band intensities: two or more heme binding sites per NTD
THP-1 cells
  ATP/ADP ratio: reduced
[1]
  co-IP of endogenous MFSD7C and SERCA2b: diminished
